Measured values published in patent publication US9765019B2, “Small-molecule-targeted protein degradation” (Brandeis University, priority 2011, dated 2017).
Read-outs that look alike come from different tables or passages of the source.

Experiments:
eDHFR-HA = target: T1, eDHFR-HA (Escherichia coli, UniProt P0ABQ4); assay: Degradation by purified 20S proteasome / immunoproteasome; format: biochemical
T1 construct: (His)6 (N); made in house; host or cells: Escherichia coli (pET28a vector)
Method: The protein was pre-inhibited with 1 mM inhibitor by incubation at 30° C. for 20 minutes. This mixture was added to the assay mixture (in 50 mM Hepes, pH 8.0, 250 mM NaCl, 1 mM DTT) such that the final concentration of protein was 90 nM. The concentration of proteasome was 6 nM. The temperature of assay was 37° C. Total assay volume was 55 μL. 15 μL aliquots were extracted at various time points and immediately placed into 6 μL of 5× loading buffer and boiled for 5 minutes. These were stored at −80° C. after flash freezing on dry ice and thawed by boiling for 2 minutes. The data was analyzed by Western blot as described in Example 2.

eDHFR = eDHFR (Escherichia coli, UniProt P0ABQ4); format: binding; conditions: data not shown
HeLa cells = assay: Cytotoxicity and apoptosis (trypan blue staining, PARP cleavage); format: cell-based; conditions: concentrations up to 135 μM
[1] = target: T2, Escherichia coli dihydrofolate reductase (Escherichia coli, UniProt P0ABQ4); assay: Degradation of pre-inhibited eDHFR in cell lysates (Western blot); format: biochemical
T2 construct: (His)6 (N); made in house; host or cells: Escherichia coli (pET28a vector)

[2] = test system: eDHFR-KRas D12 fusion protein; format: cell-based; conditions: NIH3T3 cells, 16 μM
Method: FIG. 3 depicts the degradation of eDHFR-KRas D12 fusion protein. MSCV retrovirus was used to insert eDHFR-KRas D12 fusion gene into NIH3T3 cells. These cells were plated in a 48-well plate and treated with 16 μM of either trimethoprim or trimethoprim-Boc3Arg, and then harvested at the times indicated. eDHFR-Ras contained a FLAG tag at the amino terminus and was measured through western blot with anti-FLAG antibody. Tubulin was used as a loading control.

eDHFR-HA-GFP = eDHFR-HA-GFP (Escherichia coli, UniProt P0ABQ4)
Method: FIG. 6 depicts degradation of eDHFR-HA in cell lysates and degradation of eDHFR fusion proteins in HeLa cells. (A) Degradation of eDHFR in HeLa cells lysates; (B) quantification of panel (A); (C) Global protein stability (GPS) assay. Cells co-express red fluorescent protein (RFP) and DHFR-HA-GFP from a bicistronic construct. Red and green fluorescence was measured by flow cytometry.
Protein degradation in whole cells was also assessed. eDHFR-HA-GFP was co-expressed with Discosoma sp. red fluorescent protein (RFP) in a bicistronic construct under control of a CMV promoter, with DHFR-HA-GFP translation occurring at the internal ribosome binding site. Thus a single mRNA is responsible for the production of both RFP and DHFR-HA-GFP, so that similar ratios of both proteins should be produced in all transfected cells. Changes in the relative intensities of red and green fluorescence are measured by flow cytometry, providing a facile and quantitative measure of the degradation of DHFR-HA-GFP in living cells and real time.
Cells were grown to 90% confluence in Dulbecco's Modified Minimal Essential Medium supplemented with 10% fetal bovine serum, 1×L-glutamine with no antibiotic in a 6 well plate. At this point the cells were serum starved, and then transfected using […] plasmid (expression driven by the cytomegalovirus promoter; gene coding for enhanced green fluorescent protein fused to the C-terminus of E. coli dihydrofolate reductase): 2 μL Transfectin™ (Biorad) per well. 48 hours after transfection, media was once again aspirated, and fresh serum free media was added. Cycloheximide (final concentration 100 μg/mL) was then added to the cells and after 5 minutes, 30 μM inhibitor was added. At each time point (45 minutes), media was aspirated, cells were trypsinized, centrifuged and washed three times with phosphate buffered saline. Cell pellets were flash frozen in dry ice, and then stored indefinitely at −80° C. The cells were thawed on ice, and then resuspended in lysis buffer (150 mM sucrose, 200 mM sodium phosphate, 43 mM MgCl2, pH 7.8, 0.1% triton X-100). Cells were lysed by two freeze/thaw cycles (−80° C. for 5 minutes, then 4° C. for 10 minutes). Lysate concentrations were normalized by dilution with lysis buffer such that they gave the same A595 when diluted into Bradford assay dye (Biorad).

Question: For `COc1cc(Cc2cnc(N)nc2N)cc(OC)c1OCC(=O)NCCCCCCNC(=O)C(CCCNC(=NC(=O)OC(C)(C)C)NC(=O)OC(C)(C)C)NC(=O)OC(C)(C)C` (stereo not drawn) [TMP-Boc3Arg, N-(6-(2-(4-((2,4-diaminopyrimidin-5-yl)methyl)-2,6-dimethoxyphenoxy)acetamido)hexyl)-5-(2,3-di-t-butoxycarbonylguanidino)-2-(t-butoxycarbonylamino)pentanamide], which “Degradation using purified immune proteasome” value (eDHFR-HA; 20S immunoproteasome) is on record?
Answer: promotes the degradation

Question: And the “Degradation using purified 20S proteasome” value (eDHFR-HA; purified 20S proteasome, no ATP added)?
Answer: promotes the degradation

Question: What about the “increase of eDHFR melting point / stability (relative to TMP)” value (eDHFR) of the same molecule?
Answer: smaller increase

Question: What about the “Cytotoxicity / induction of apoptosis” value (HeLa cells) of the same molecule?
Answer: did not display cytotoxicity or induce apoptosis

Question: And the “Degradation of target protein (eDHFR fused to GFP)” value ([1]; FIG. 6, noncovalent ligand)?
Answer: induced the degradation

Question: And the “Degradation of eDHFR in cell lysate assays” value ([1]; cell lysate)?
Answer: promotes the degradation

Question: And the “Degradation of K-Ras-eDHFR fusion protein” value [2]?
Answer: can induce the degradation

Question: What about the “Degradation of K-Ras-eDHFR fusion protein” value ([2]; listed as trimethoprim-tag) of the same molecule?
Answer: is degraded

Question: What about the “decrease of eDHFR-HA-GFP” value (eDHFR-HA-GFP; 80 μM, 5 hours, GPS assay, anti-HA and anti-GFP blotting) of the same molecule?
Answer: 40%

Question: What about the “Change in GFP:RFP ratio as function of time” value (eDHFR-HA-GFP; GPS assay, transfected HeLa cells, flow cytometry) of the same molecule?
Answer: time-dependent decrease

Question: And the Cell permeability (eDHFR-HA-GFP; inferred from whole-cell degradation)?
Answer: cell permeable

Question: And the “Degradation of eDHFR-HA-GFP in whole cells” value (eDHFR-HA-GFP; whole cell assays)?
Answer: promotes the degradation
